Results published in patent US7300784B2 (priority 2001, dated 2007).
Several values for one entry are separate records, joined by “and”; a condition that tells them apart may be missing. Equal values may be shown once. Read-outs that look alike come from different tables or passages of the source.

How the values were obtained:
[1] = test system: nitrile hydratase of Rhodococcus sp. Cr4; experiment: Substrate specificity of the purified nitrile hydratase (amide formation by HPLC); format: biochemical; settings: for substrate suitability: purified nitrile hydratase
Description: (§1) The standard assay method for the nitrile hydratase activity used in the following Examples as follows. The enzyme reaction is initiated by adding 3-cyanopyridine or 2-hydroxy-4-methylthiobutyronitrile (HMBN) as the substrate compound. In the case of 3-cyanopyridine, incubation was continued at 20° C. for 10 minute, in the case of HMBN, at 20° C. for 15 minutes. When 3-cyanopyridine was used in the reaction, 0.1 ml of 2 N hydrochloric acid was added to the reaction and the mixture was shaken vigorously to stop the reaction; when HMBN was used in the reaction, 0.1 ml of the reaction solution was added to 0.9 ml of 0.1% (v/v) phosphoric acid and the mixture was shaken vigorously to stop the reaction. The reaction solution was analyzed by HPLC.
• 0.3 M 3-cyanopyridine was added to initiate the reaction. • The mixture was incubated with shaking at 20° C. for […]. • 2 N HCl was added to stop the reaction. • Centrifugation. • HPLC analysis.
The substrate specificity of the enzymewas examined. With the standard composition reaction solution shown in table 2, 2.92 U enzyme was incubated with various types of substrates, instead of 3-cyanopyridine; the generation of amides in the reaction solution was analyzed by HPLC. Thus, the relative activity was determined. The types of substrate compounds added, final concentrations thereof, reaction times, and HPLC conditions used for the analyses of products corresponding to the respective substrates are shown in Table 6. The HPLC conditions (1)-(9) are indicated next to Table 6.
The conditions for HPLC were as follows: • (1) Column: Waters Spherisorb 5 μODS2 (4.6×150 mm); • Solvent: 10 mM KH2PO4(pH 2.8)/acetonitrile (v/v)=9:1; • Flow rate: 1.0 ml/min; • Detection: 230 nm; • Injection volume: 5 μl. • (2) Column: Waters Spherisorb 5 μODS2 (4.6×150 mm); • Solvent: 10 mM KH2PO4(pH 2.8)/acetonitrile (v/v)=9:1; • Flow rate: 1.0 ml/min; • Detection: 230 nm; • Injection volume:5 μl. • (3) Column: Waters Spherisorb 5 μODS2 (4.6×150 mm); • Solvent: 5 mM KH2PO4 (pH 2.8)/acetonitrile (v/v)=12:7; • Flow rate: 1.0 ml/min; • Detection: 230 nm; • Injection volume: 5 μl. • (4) Column: Waters Spherisorb 5 μODS2 (4.6×150 mm); • Solvent: 10 mM KH2PO4(pH 2.5)/acetonitrile (v/v)=99:1; • Flow rate: 1.0 ml/min; • Detection: 210 nm; • Injection volume: 5 μl. • (5) Column: Waters Spherisorb 5 μODS2 (4.6×150 mm); • Solvent: 10 mM KH2PO4(pH 2.5)/acetonitrile (v/v)=99:1; • Flow rate: 1.0 ml/min; • Detection: 230 nm; • Injection volume: 5 μl. • (6) Column: Spherisorb S5ODS2 (4.6×150 mm) • Solvent: 0.1% (v/v) phosphate/acetonitrile (v/v)=99:1; • Flow rate: 1.0 ml/min; • Detection: 210 nm; • Injection volume: 5 μl. • (7) Column: Spherisorb S5ODS2 (4.6×150 mm); • Solvent: 0.1% (v/v) phosphate/acetonitrile (v/v)=9:1; • Flow rate: 1.0 ml/min; • Detection: 210 nm; • Injection volume: 5 μl; • Temperature: 40° C. • (8) Column: Spherisorb S5ODS2 (4.6×150 mm); • Solvent: 0.1%(v/v) phosphate/acetonitrile (v/v)=9:1; • Flow rate: 1.0 ml/min; • Detection: 230 nm; • Injection volume: 5 μl • Temperature: 40° C. • (9) Column: Spherisorb S5ODS2 (4.6×150 mm); • Solvent: 5 mM KH2PO4 (pH 2.8)/acetonitrile (v/v)=12:7; • Flow rate: 1.0 ml/min; • Detection: 210 nm; • Injection volume: 5 μl; • Temperature: 40° C. 13. The Effect of Inhibitors on the Enzymatic Activity

[2] = test system: nitrile hydratase of Rhodococcus sp. Cr4; experiment: Effect of coexisting Ni++ ion with various substrates; format: biochemical; settings: for effect of Ni++ on activity with this substrate: Ni++ added
Description: Then, with the standard composition of reaction solution shown in table 2, various types of substrates, instead of 3-cyanopyridine, were added to the solutions containing 2.92 U enzyme to study their effects on the activity. […] The addition of Ni^++ ion was assumed to specifically enhance the reaction efficiency when the substrate was a α-hydroxynitrile (Table 11).
The incubation was prolonged for 10 minutes at 20° C. using 2.92 U enzyme. 17. Determination of N-Terminal Amino Acid Sequence

[3] = test system: nitrile hydratase of Rhodococcus sp. Cr4; experiment: Effect of substrate concentration (Km value, Lineweaver-Burk plot); format: biochemical; settings: 20° C., 15 minutes
Description: The Km value for HMBN was determined from the S-V plot (FIG. 4) and Lineweaver-Burk plot (FIG. 5). 0.0585 U of the enzyme was added to solutions containing HMBN at various concentrations and the reactions were incubated at 20° C. for 15 minutes. The reactions were analyzed by HPLC.
In addition, the Km value for 3-cyanopyridine was determined from the S-V plot (FIG. 6) and Lineweaver-Burk plot (FIG. 7). Similarly, 0.0265 U of the enzyme was added to solutions containing 3-cyanopyridine at various concentrations and the reactions were incubated at 20° C. for 15 minutes. The reactions were analyzed by HPLC.

Rhodococcus sp. Cr4 = format: cell-based
[4] = test system: nitrile hydratase of Rhodococcus sp. Cr4; format: biochemical
[5] = test system: Rhodococcus rhodochrous ATCC 332878; format: cell-based
[6] = test system: nitrile hydratase of Rhodococcus sp. Cr4; format: biochemical; settings: for effect on enzyme activity (words): inhibitors
Description: as §1
• 10% (v/v) HMBN was added to initiate the reaction. • The mixture was incubated with shaking at 20° C. for 10 minutes. • 0.1% (v/v) H3PO4 was added to stop the reaction. • Centrifugation. • HPLC analysis.
Inhibitors to the enzyme were studied. With the standard composition of reaction solution shown in Table 1, various inhibitors were added at a final concentration 1.0 mM or 0.1 mM to the solutions containing 2.92 U enzyme; after the mixtures were incubated at 20° C. for 10 minutes, the reaction was carried out for 15 minutes.

[7] = compound used as substrate, methanol added (final conc. 20% v/v), 20° C., 2.92 U enzyme
[8] = compound used as substrate, activity for 3-cyanopyridine = 100%, 20° C., 2.92 U enzyme
[9] = compound 1.0 mM, Free = 100, HMBN substrate, 20° C.

Compound: CC(C)CC#N [Isovaleronitrile]
- Relative activity (%) [1, 7]: 2.71%

Compound: CSCCC(O)C#N (stereo not drawn) [HMBN, 2-hydroxy-4-methylthiobutyronitrile]
- activity, Free [2]: 100
- activity, NiCl2 (1 mM) [2]: 196
- effect of Ni++ on activity with this substrate [2]: enhanced twice
- Km [3]: 1430 µM
- Relative activity (%) [1, 8]: 154%

Compound: CoCl2
- Relative activity (%) (Rhodococcus sp. Cr4): 137%
- effect on nitrile hydratase activity in resting cell reaction (Rhodococcus sp. Cr4): enhanced
- Relative activity (%) [4]: 154%
- effect on enzyme activity (words) [4]: enhanced
- enhancement of the enzymatic activity [4]: 1.5 times
- Relative activity (%) ([4]; 0 mM = 100): 136% and 127% and 129% and 150% and 153% and 143%
- Relative activity (%) [5]: 123%

Compound: C/C(N)=C/C#N [β-aminochlotononitlile]
- activity, Free [2]: 0
- activity, NiCl2 (1 mM) [2]: 0

Compound: NCCS [Cysteamine]
- Relative activity (%) [6]: 106%

Compound: O=S(=O)([O-])[O-].[Zn+2] [ZnSO4]
- Relative activity (%) [4]: 84.1%

Compound: CC=CC#N [Crotononitrile]
- activity, Free [2]: 100
- activity, NiCl2 (1 mM) [2]: 103
- Relative activity (%) [1, 8]: 87.4%

Compound: [Cl][Mn][Cl] [MnCl2]
- Relative activity (%) [4]: 96.7%

Compound: O=C(O)c1cc(SSc2ccc([N+](=O)[O-])c(C(=O)O)c2)ccc1[N+](=O)[O-] [5-5′-Dithiobis]
- Relative activity (%) [6]: 99.1%

Compound: N#CC(O)c1ccccc1 (stereo not drawn) [Manderonitlile]
- activity, Free [2]: 100
- activity, NiCl2 (1 mM) [2]: 201
- effect of Ni++ on activity with this substrate [2]: enhanced twice

Compound: [N-]=[N+]=[N-].[Na+] [NaN3]
- Relative activity (%) [6]: 98.5%

Compound: N#CCCO [Etylene cyanohydrin]
- activity, Free [2]: 100
- activity, NiCl2 (1 mM) [2]: 91

Compound: N#CCC(N)=O [2-Cyanoacetamide]
- Relative activity (%) [1, 8]: 46.3%

Compound: N#Cc1ccccn1 [2-Cyanopyridine]
- activity, Free [2]: 100
- activity, NiCl2 (1 mM) [2]: 97
- Relative activity (%) [1, 8]: 223%
- substrate suitability [1]: suitable substrates

Compound: N#Cc1cccnc1 [3-Cyanopyridine]
- activity, Free [2]: 100
- activity, NiCl2 (1 mM) [2]: 99
- Km [3]: 1380 µM
- Relative activity (%) [1, 8]: 100%
- Relative activity (%) [1, 7]: 76.5%

Compound: NC(N)=O [Urea]
- Relative activity (%) [6, 9]: 95.7%

Compound: O=[N+]([O-])[O-].[Ag+] [AgNO3]
- Relative activity (%) [4]: 7.85%
- effect on enzyme activity (words) [4]: markedly inhibited

Compound: CCN1C(=O)C=CC1=O [N-Ethylmaleimide]
- Relative activity (%) [6, 9]: 101%

Compound: N#Cc1ccncc1 [4-Cyanopyridine]
- activity, Free [2]: 100
- activity, NiCl2 (1 mM) [2]: 99
- Relative activity (%) [1, 8]: 127%

Compound: N[C@@H]1CONC1=O [D-Cycloserine]
- Relative activity (%) [6, 9]: 94.8%

Compound: O=S(=O)([O-])[O-].[Cu+2] [CuSO4]
- Relative activity (%) [4]: 109%

Compound: N#CCN [Aminoacetonitlile]
- activity, Free [2]: 0
- activity, NiCl2 (1 mM) [2]: 0

Compound: N#Cc1cccc(Cl)c1 [m-Chlorobenzonitrile]
- Relative activity (%) [1]: 7.18%

Compound: CCCCCC#N [n-Capronitrile]
- Relative activity (%) [1, 7]: 18.1%

Compound: O[C@H](CS)[C@H](O)CS (racemic) [Dithiothreitol]
- Relative activity (%) [6, 9]: 93.4%

Compound: CCCC#N [n-Butyronitrile]
- activity, Free [2]: 100
- activity, NiCl2 (1 mM) [2]: 94
- Relative activity (%) [1, 7]: 379%
- substrate suitability [1]: suitable substrates

Compound: N#CCc1c[nH]c2ccccc12 [3-Indolylacetonitrile]
- Relative activity (%) [1, 7]: 2.33%

Compound: N#CCO [Hydroxyacetonitlile]
- activity, Free [2]: 0
- activity, NiCl2 (1 mM) [2]: 0

Compound: C=C(C)C#N [Methacrylonitrile]
- Relative activity (%) [1, 8]: 93.7%

Compound: CCC#N [Propionitrile]
- Relative activity (%) [1, 8]: 173%

Compound: O=C(O)CI [Iodoacetate]
- Relative activity (%) [6]: 97.0%

Compound: N#CCCN [3-aminopropyonitlile]
- activity, Free [2]: 100
- activity, NiCl2 (1 mM) [2]: 97

Compound: CCCCC#N [n-Valeronitrile]
- Relative activity (%) [1, 7]: 118%

Compound: [Cl][Fe]([Cl])[Cl] [FeCl3]
- Relative activity (%) [4]: 100%

Compound: [Ca+2].[Cl-].[Cl-] [CaCl2]
- Relative activity (%) [4]: 96.4%

Compound: CC(C)C#N [Isobutyronitrile]
- Relative activity (%) [1, 7]: 40.9%

Compound: O=S(=O)([O-])[O-].[Fe+2] [FeSO4]
- Relative activity (%) [4]: 78.9%

Compound: NNc1ccccc1 [Phenylhydrazine]
- Relative activity (%) [6, 9]: 8.19%
- effect on enzyme activity (words) ([6]; listed as phenyl hydrazine): markedly inhibited
- effect on enzyme activity (words) ([6]; listed as phenylhydrazine): inhibited

Compound: C=CC#N [Acrylonitrile]
- Relative activity (%) [1, 8]: 114%

Compound: O=S(=O)(O)c1cc(O)c(O)c(S(=O)(=O)O)c1 [Tiron]
- Relative activity (%) [6, 9]: 132%

Compound: NO [Hydroxylamine]
- Relative activity (%) [6, 9]: 62.1%
- effect on enzyme activity (words) [6]: markedly inhibited

Compound: O=C(O)CN(CCN(CC(=O)O)CC(=O)O)CC(=O)O [EDTA]
- Relative activity (%) [6]: 101%

Compound: N#Cc1ccccc1 [Benzonitrile]
- Relative activity (%) [1]: 138%

Compound: N#CCC#N [Malononitrile]
- substrate suitability [1]: suitable substrates

Compound: N#Cc1ccc(Cl)cc1 [p-Chlorobenzonitrile]
- Relative activity (%) [1]: 28.4%

Compound: N#Cc1ccccc1Cl [o-Chlorobenzonitrile]
- Relative activity (%) [1, 7]: 58.6%

Compound: N#Cc1cnccn1 [Cyanopyrazine]
- Relative activity (%) [1, 8]: 114%

Compound: O=C(O)c1cc[c]([Hg][Cl])cc1 [p-Chloromercuribenzoate]
- Relative activity (%) [6, 9]: 97.7%

Compound: [Cl][Hg][Cl] [HgCl2]
- Relative activity (%) ([4]; metal 1.0 mM, Free = 100, incubated 20° C. 10 minutes): 7.48%
- effect on enzyme activity (words) ([4]; metal ions): inhibited
- effect on enzyme activity (words) ([4]; metal ions, listed as Hg^++): markedly inhibited

Compound: CC#N [Acetonitrile]
- Relative activity (%) [1]: 14.6%
